# Tests used:
# A549 = test: Cytotoxicity against human A549 cells after 48 hrs by MTT assay; format: functional, cell-based; conditions: A549, 48 h
# PC-3 = test: Cytotoxicity against human PC3 cells after 48 hrs by MTT assay; format: functional, cell-based; conditions: PC-3, 48 h
# A-431 = test: Cytotoxicity against human A431 cells after 48 hrs by MTT assay; format: functional, cell-based; conditions: A-431, 48 h
# PANC-1 [1] = test: Antitumor activity against human PANC1 cells xenografted in po dosed mouse assessed as tumor growth inhibition administered qd for 13 days measured up to 21 days; format: functional, organism-based
# PANC-1 [2] = test: Antitumor activity against human PANC1 cells xenografted in mouse assessed as tumor growth inhibition at 25 mg/kg, po qd for 13 days measured up to 21 days; format: functional; conditions: read-out: TGI
# PANC-1 [3] = test: Antitumor activity against human PANC1 cells xenografted in mouse assessed as tumor growth inhibition at 5 mg/kg, po qd for 13 days measured up to 21 days; format: functional; conditions: read-out: TGI
SMILES,IC50 (A549) [µM],IC50 (PC-3) [µM],IC50 (A-431) [µM],TGI (PANC-1 [1]),inhibition in vivo at 25 mg/kg (PANC-1 [2]) [%],inhibition in vivo at 5 mg/kg (PANC-1 [3]) [%]
COc1ccc2c(c1)CC(=O)N(c1ccc3nc(NC(=O)C4CC4)sc3c1)C2=O,20.7,10.5,12,–,–,–
COc1cc2c(c(OC)c1OC)C(=O)N(c1ccc3nc(NC(=O)C4CC4)sc3c1)C(=O)C2,16.2,20.6,7.58,–,–,–
O=C(Nc1ccc2nc(NC(=O)C3CC3)sc2c1)c1c(Cl)cccc1Cl,9,2.01,–,–,–,–
O=C(Nc1nc2ccc(N3C(=O)Cc4ccccc4C3=O)cc2s1)C1CC1,22.3,16.7,46.8,–,–,–
COc1cc2c(c(OC)c1)C(=O)N(c1ccc3nc(NC(=O)C4CC4)sc3c1)C(=O)C2,12.7,7.7,7.01,Dose-dependent effect,31.5,23.7
COc1ccc(N2C(=O)Cc3cc(OC)cc(OC)c3C2=O)cc1,> 100,> 100,78.9,–,–,–
COc1cc2c(c(OC)c1)C(=O)N(c1cccc(C(F)(F)F)c1)C(=O)C2,> 100,45.3,62.5,–,–,–
COc1cc2c(c(OC)c1)C(=O)N(c1ccc3nc(NC(C)=O)sc3c1)C(=O)C2,20.5,11.2,11.9,–,–,–
C#Cc1cccc(N2C(=O)Cc3cc(OC)cc(OC)c3C2=O)c1,> 100,28.9,60.4,–,–,–
COc1cc2c(c(OC)c1)C(=O)N(c1ccc(C)cc1)C(=O)C2,43.6,21,47.6,–,–,–
COc1cc2c(c(OC)c1)C(=O)N(c1ccc(C(F)(F)F)cc1)C(=O)C2,32.1,17.1,32.8,–,–,–
O=C(Nc1nc2ccc(N3C(=O)Cc4ccc(F)cc4C3=O)cc2s1)C1CC1,12.6,11.7,8.64,–,–,–

# Source: ChEMBL document CHEMBL2429838, “Synthesis and antitumor activity evaluation of 2-arylisoquinoline-1,3(2H,4H)-diones in vitro and in vivo” (Med Chem Res, 2013)
